Assays:
[1] = test system: retina of aged Fisher rats; experiment: Retinal morphology (H & E, rows and thickness of ONL and INL) in aged rats; type: in vivo, rat; conditions: female Fisher rats ~19-21 months, 500 nmoles/kg/day by gavage for 3 months
Description: (§1) Female aged (19–21 months) Fisher rats (n = 7) were given P021 per os by gavage (10 ml/kg body weight) once a day for 88 days. […] To be able to deliver the same constant dose to each animal, we chose gavage. Furthermore, the administration of P021 by gavage is more economical than by drinking water. As controls, the second group of aged (19–21 months) female rats (n = 7) and a group of young adult female rats (2–3 months, n = 7) were treated identically, but with normal saline (vehicle) only (Figure 1A). Administration of vehicle and test compound was done at 7–9 AM daily and blindly to the investigators who collected, processed, and analyzed the tissue.
(§2) The animals were anesthetized by using an overdose of avertin and then were transcardially perfused by using 0.1 M phosphate-buffered saline (PBS). Eyeballs were dissected out from the carcasses, immersion-fixed for 24 h in 4% paraformaldehyde at 4°C, and then transferred to 70% alcohol for storage; in the case of mice, the eyeballs were prefixed by injecting 4% paraformaldehyde, followed by removal from the carcasses and immersion fixation as above. After the cornea and lens of the left eyes were removed, the remaining eye cup was embedded in paraffin, with the orientation parallel to the optic nerve in longitudinal position. In all cases, 5-μm serial sections were cut by using a rotary microtome and were mounted on Superfrost Plus slides. Processing and analysis of the retinal tissue were conducted blind.
(§3) Every 25th retinal section was deparaffinized and subjected to hematoxylin and eosin (H & E) staining to evaluate the morphology. The H & E staining images were captured with a light microscope using 2×, 40×, and 100× objective lenses. Because there is no significant difference between the 1/5th to the 1/3rd of the retina from the optic nerve head and the most peripheral part, we chose the 1/5th position of the retina from the optic nerve to the most peripheral part of the retina as the “central,” and the most peripheral part of the retina as “peripheral.” Rows of the outer nuclear layer (ONL) and the inner nuclear layer (INL) of the retina in each group (every 25th section, 3–5 sections per rat or mouse, n = 5–7 rats per group; n = 5–6 mice per group) were manually counted in three columns per image by using a 40× or, where necessary, a higher magnification objective. The thicknesses of the ONL and INL of the central and peripheral retina in each group (every 25th section from the optic nerve head, 2–3 sections per rat or mouse, n = 3–7 rats per group; n = 5–6 mice per group) were measured and quantified by using the ImageJ/NIH image analysis system. Processing and analysis of the retinal tissue and the data were conducted blind to the genotypes and the treatment of the animals.

[2] = test system: RPE of aged Fisher rats; experiment: RPE and BM pathology (H & E, auto-fluorescence deposits) in aged rats; type: in vivo, rat; conditions: female Fisher rats ~19-21 months, 500 nmoles/kg/day by gavage for 3 months
Description: as §1
(§4) The animals were anesthetized by using an overdose of avertin and then were transcardially perfused by using 0.1 M phosphate-buffered saline (PBS). […]
Every 25th retinal section was deparaffinized and subjected to hematoxylin and eosin (H & E) staining to evaluate the morphology. […] Because there is no significant difference between the 1/5th to the 1/3rd of the retina from the optic nerve head and the most peripheral part, we chose the 1/5th position of the retina from the optic nerve to the most peripheral part of the retina as the “central,” and the most peripheral part of the retina as “peripheral.” Rows of the outer nuclear layer (ONL) and the inner nuclear layer (INL) of the retina in each group (every 25th section, 3–5 sections per rat or mouse, n = 5–7 rats per group; n = 5–6 mice per group) were manually counted in three columns per image by using a 40× or, where necessary, a higher magnification objective. The thicknesses of the ONL and INL of the central and peripheral retina in each group (every 25th section from the optic nerve head, 2–3 sections per rat or mouse, n = 3–7 rats per group; n = 5–6 mice per group) were measured and quantified by using the ImageJ/NIH image analysis system. […]

[3] = test system: retina of 3xTg-AD mice; experiment: Retinal morphology (H & E, rows and thickness of ONL and INL) in aged 3xTg-AD mice; type: in vivo, mouse; conditions: female 3xTg-AD mice, 60 nmoles P021/g feed from 3 to 21 months of age
Excerpt: (§5) At approximately 3 months of age, the female wild type and 3xTg-AD mice were divided into five groups (n = 6–7 mice per group; Figure 3A): (1) wild type mice, age 3 months, without treatment (WT-3 m); (2) 3xTg-AD mice, age 3 months, without treatment (3xTg-3 m); (3) wild type mice, age 3 months, treated with vehicle feed without P021 until the age of 21 months (WT-21 m/Veh); (4) 3xTg-AD-mice, age 3 months, treated with vehicle feed without P021 until the age of 21 months (3xTg-21 m/Veh); and (5) 3xTg-AD-mice, age 3 months, treated with 60 nmol P021/g feed till the age of 21 months (3xTg-21 m/P021). The first two groups, WT-3 m and 3xTg-AD-3 m, were the starting points and were employed as controls to study age-associated AMD-like changes in WT-21 m and 3xTg-AD-21 m, respectively. We included WT-21 m/Veh as another reference group to enable a comparison of AMD-like changes in 3xTg-21 m/Veh with age-matched WT animals. […] P021 was formulated in the feed by Research Diets (New Brunswick, NJ, USA). Food consumption and body weight were recorded every 2 weeks and every month, respectively. The average mouse food consumption was ~2.7 g feed/day. The analysis of the animals was carried out blind to the treatment.
as §2, §3

[4] = test system: RPE and BM of 3xTg-AD mice; experiment: RPE and BM pathology (H & E, auto-fluorescence deposits) in aged 3xTg-AD mice; type: in vivo, mouse; conditions: female 3xTg-AD mice, 60 nmoles P021/g feed from 3 to 21 months of age
Excerpt: (§6) At approximately 3 months of age, the female wild type and 3xTg-AD mice were divided into five groups (n = 6–7 mice per group; Figure 3A): (1) wild type mice, age 3 months, without treatment (WT-3 m); (2) 3xTg-AD mice, age 3 months, without treatment (3xTg-3 m); (3) wild type mice, age 3 months, treated with vehicle feed without P021 until the age of 21 months (WT-21 m/Veh); (4) 3xTg-AD-mice, age 3 months, treated with vehicle feed without P021 until the age of 21 months (3xTg-21 m/Veh); and (5) 3xTg-AD-mice, age 3 months, treated with 60 nmol P021/g feed till the age of 21 months (3xTg-21 m/P021). The first two groups, WT-3 m and 3xTg-AD-3 m, were the starting points and were employed as controls to study age-associated AMD-like changes in WT-21 m and 3xTg-AD-21 m, respectively. […] Food consumption and body weight were recorded every 2 weeks and every month, respectively. […]
Every 25th retinal section was deparaffinized and subjected to hematoxylin and eosin (H & E) staining to evaluate the morphology. […] The thicknesses of the ONL and INL of the central and peripheral retina in each group (every 25th section from the optic nerve head, 2–3 sections per rat or mouse, n = 3–7 rats per group; n = 5–6 mice per group) were measured and quantified by using the ImageJ/NIH image analysis system. […]

[5] = test system: Iba-1; experiment: Microgliosis, Iba-1 immunofluorescence in retina of 3xTg-AD mice; type: in vivo, mouse; conditions: female 3xTg-AD mice, 60 nmoles P021/g feed from 3 to 21 months of age
Excerpt: as §6
(§7) Paraffin sections were deparaffinized, rehydrated, and subjected to antigen retrieval by boiling for 20 min in 10 mM sodium citrate solution (pH 6.0). […] The area to be analyzed was selected, converted to grayscale, and thresholded using Yen’s arithmetic, and the area percentage of positive staining was measured for each section by using the NIH ImageJ software package. The staining area was quantified from two to three sections of each eye and averaged (n = 5–7 animals per group).

[6] = test system: Iba-1; experiment: Microgliosis, Iba-1 immunofluorescence in retina of aged rats; type: in vivo, rat; conditions: female Fisher rats ~19-21 months, 500 nmoles/kg/day by gavage for 3 months
Description: as §1, §4, §7

[7] = test system: GFAP; experiment: Astrogliosis, GFAP immunofluorescence in retina of 3xTg-AD mice; type: in vivo, mouse; conditions: female 3xTg-AD mice, 60 nmoles P021/g feed from 3 to 21 months of age
Excerpt: as §5, §4, §7

[8] = test system: GFAP; experiment: Astrogliosis, GFAP immunofluorescence in retina of aged rats; type: in vivo, rat; conditions: female Fisher rats ~19-21 months, 500 nmoles/kg/day by gavage for 3 months; n = 6-7 rats; vs 22-24 m/Veh
Description: as §1, §4, §7

[9] = test system: total tau, phosphorylated tau, Aβ/APP; experiment: Tau and Aβ pathologies, immunofluorescence in retina of aged rats; type: in vivo, rat; conditions: aged Fisher rats, 500 nmoles/kg/day by gavage for 3 months; qualitative, not quantified, 2-3 animals/group
Description: as §1, §4, §7

[10] = test system: total tau, phosphorylated tau, Aβ/APP; experiment: Tau and Aβ pathologies, immunofluorescence in retina of aged 3xTg-AD mice; type: in vivo, mouse; conditions: 60 nmoles P021/g feed from 3 to 21 months of age, qualitative, not quantified, 2-3 animals/group
Excerpt: as §6, §7

[11] = test system: VEGF; experiment: VEGF immunofluorescence in retina and optic nerve of aged 3xTg-AD mice; type: in vivo, mouse; conditions: 60 nmoles P021/g feed from 3 to 21 months of age, qualitative, 2-3 animals/group
Excerpt: as §6, §7

[12] = method not given, block ends with ref Kazim et al., 2014, cited from earlier work
Description: P021 is quite stable in artificial gastric juice (~90% for 30 min) and in artificial intestinal juice (>95% for 120 min).

[13] = commercial service (APREDICA, Watertown, MA, USA); ref Kazim et al., 2014; cited from earlier work
[14] = test system: aged rats and mice; conditions: chronic oral treatment in aged rats and mice, earlier study; ref Kazim et al., 2014; cited from earlier work
Excerpt: At as early as 12 months of age, OXYS rats and Wistar rats are known to show AMD-like pathology, such as BM thickening and lipofuscin accumulation (Neroev et al., [2008]; Markovets et al., [2011]). […] Here, to assess the AMD-like retinal pathology induced by aging and to study the effect of P021 on the p ...

Ac-DGGL^AG-NH2 [P021]
outer retinal folds and rosette-like structures in the central retina [1]: No abnormal structure like this was observed | rows and thickness of INL in the central retina [1]: no detectable effect | rows and thickness of ONL, central and peripheral retina ([1]; vs 22-24 m/Veh): prevented these pathological changes more effectively in the central retina | rows of INL in the peripheral retina ([1]; vs 22-24 m/Veh): showed a clear trend to rescue the number of rows | arrangement of apical microvilli (AM) in RPE ([2]; H & E): showed improvement in the arrangement of AM | vacuolation and atrophy of RPE ([2]; H & E): no apparent abnormalities were observed | lipofuscin granules and deposition number between RPE and Cho ([2]; auto-fluorescence λex = 543, n = 7 rats, vs 22-24 m/Veh): markedly decreased | extension of ONL nuclei across the OPL or into the INL, central retina ([3]; H & E): this pathology was prevented | prevention of changes in rows and thickness of INL in the peripheral retina ([3]; vs 3xTg-21 m/Veh, H & E): did not reach significance | rows and thickness of INL in the central retina ([3]; vs 3xTg-21 m/Veh, H & E): prevented these changes | rows and thickness of ONL in the central retina ([3]; vs 3xTg-21 m/Veh, H & E): these changes in the central retina were prevented | rows and thickness of ONL in the peripheral retina ([3]; vs 3xTg-21 m/Veh, H & E): showed a trend to rescue these changes | rescue of INL thickness in the central retina ([3]; vs 3xTg-21 m/Veh, obvious trend): did not reach statistical significance | thickening of the BM ([4]; H & E): no BM thickening | number of deposits between the RPE and Cho ([4]; auto-fluorescence λex = 543, n = 5 mice, vs 3xTg-21 m/Veh): significantly reduced | distribution of Iba-1-positive staining in the central retina [5]: only observed in the GCL | area percentage of Iba-1 immunostaining in the peripheral retina ([5]; NFL to ONL, n = 3-6 mice, vs 3xTg-21 m/Veh): decreased in 3xTg-21 m/P021 mice to the levels in WT-3 m/Veh and 3xTg-3 m/Veh mice | localization of Iba-1-positive microglial cells in the retina ([6]; especially central retina): no staining was found from the ONL to the OS | relative Iba-1 immunostaining from the NFL to the OS, central and peripheral retinas ([6]; n = 6-7 rats, vs 22-24 m/Veh): dramatically reduced | distribution of GFAP-positive staining in the retina [7]: limited to the NFL and GCL | area percentage of GFAP in the peripheral retina, changes between groups ([7]; n = 3-6 mice, similar trend, large standard error): did not reach statistical significance | area percentage of GFAP from the NFL to the ONL in the central retina ([7]; n = 5-6 mice, vs 3xTg-21 m/Veh): reduced by P021 treatment to the levels in WT-3 m/Veh and 3xTg-3 m/Veh mice | GFAP staining in central and peripheral retinas [8]: reduced very much | tau and Aβ pathologies in the retina (R134d, PHF-1, AT8, 4G8, Aβ immunofluorescence) [9]: prevented the trend in the increase in tau and Aβ pathologies | tau and Aβ pathologies in the retina (R134d, PHF-1, AT8, 4G8, Aβ immunofluorescence) [10]: prevented the trend in the increase in tau and Aβ pathologies | VEGF staining in the optic nerve [11]: the size of the staining patch was decreased | localization of VEGF-positive spots in the retina [11]: limited mainly to the GCL to the IPL | stability in artificial gastric juice ([12]; 30 min): ~ 90% | stability in artificial intestinal juice ([12]; 120 min): > 95% | BBB crossing [13]: a sufficient amount of P021 crossed the BBB | general physical state / side effects [14]: did not observe any worsening in general physical state

— article PMC6877482, “Inhibition of AMD-Like Pathology With a Neurotrophic Compound in Aged Rats and 3xTg-AD Mice” (Frontiers in Aging Neuroscience, 2019)
